# Results published in patent US7109174B2, “Anticonvulsant derivatives useful for preventing the development of type II diabetes mellitus and syndrome X” (Ortho-McNeil Pharmaceutical, Inc., priority 2000, dated 2006).
# Test system: Female db/db mice
# Assay: Oral glucose tolerance test (fasted) in female db/db mice after 11 days oral dosing
# Format: in vivo
# Conditions: for Oral Glucose Tolerance Test (fasted) Plasma Glucose: ± sem
# Experimental: Female db/db mice (C57BLK S/J-m^+/^+ Lepr^db Jackson Labs, Bar Harbor, Me.), 7–8 weeks of age, were housed four per cage in solid-bottomed shoe box cages. Room temperature was maintained at 68–72° F. and humidity at 50–65%. Room lighting was on a 12-hour light/12-hour dark cycle. The mice were maintained on NIH Rat and Mouse/Auto 6F reduced fat diet #5K52 (PMI Nutrition Int'l Inc.). Food and water were supplied ad libitum.
# Test compound and vehicle were dosed orally and prepared as suspensions in 0.5% hydroxypropylmethylcellulose (Dow Chemical, Midland, Mich.). The dosing volume was 10 mL/kg of body weight.
# Different groups of female db/db mice (7–8/group) were orally gavaged daily for 11 days with either 0.5% methylcellulose in dH2O (vehicle), topiramate at 30 or 100 mg/kg/day or 2,3:4,5-bis-O-(1-methylethylidene)-β-L-fructopyranose sulfamate (hereinafter referred to as Compound V) at 30 or 100 mg/kg/day. On day 10, the animals were fasted for 20 hours before being tested for oral glucose tolerance (OGT). On day 11, four hours after the final dose for each group, an oral glucose tolerance test (OGTT) was performed by oral glucose administration of 2 g/kg. Animals were bled through tail clip at 0 (before glucose), 30, 60 and 120 min after glucose challenge. The blood samples were collected into heparinized CB microvettes and then put on ice. The plasma samples will be assayed for plasma glucose determination by using SIGMA DIAGNOSTICS Trinder reagent (Sigma, St. Louis, Mo.). Statistical analysis was performed using the program Instat (Graphpad, Monrovia, Calif.) and performing one-way ANOVA with a Dunnett's multiple comparison test.
# Following the above described procedure, the effect of topiramate and compound V on oral glucose tolerance in female db/db mice, 7 mice/group, was determined, with results as listed in Table 9. The abbreviation N represents the number of animals per study group.
smiles,measurement,setting,value
"CC1(C)O[C@H]2[C@H](CO[C@]3(COS(N)(=O)=O)OC(C)(C)O[C@H]23)O1 [Compound V, 2,3:4,5-bis-O-(1-methylethylidene)-β-L-fructopyranose sulfamate]",Oral Glucose Tolerance Test (fasted) Plasma Glucose,"30 mg/kg/day, 0 min (before glucose 2 g/kg)",221 ± 22.9 mg/dL
same,Oral Glucose Tolerance Test (fasted) Plasma Glucose,"30 mg/kg/day, 30 min after glucose 2 g/kg",441 ± 35.7 mg/dL
same,Oral Glucose Tolerance Test (fasted) Plasma Glucose,"30 mg/kg/day, 60 min after glucose 2 g/kg",244 ± 21.6 mg/dL
same,Oral Glucose Tolerance Test (fasted) Plasma Glucose,"30 mg/kg/day, 120 min after glucose 2 g/kg",213 ± 28.7 mg/dL
same,Oral Glucose Tolerance Test (fasted) Plasma Glucose,"100 mg/kg/day, 0 min (before glucose 2 g/kg)",152 ± 27.3 mg/dL
same,Oral Glucose Tolerance Test (fasted) Plasma Glucose,"100 mg/kg/day, 30 min after glucose 2 g/kg",449 ± 42.6 mg/dL
same,Oral Glucose Tolerance Test (fasted) Plasma Glucose,"100 mg/kg/day, 60 min after glucose 2 g/kg",319 ± 52.7 mg/dL
same,Oral Glucose Tolerance Test (fasted) Plasma Glucose,"100 mg/kg/day, 120 min after glucose 2 g/kg",153 ± 33 mg/dL
same,elevated blood glucose levels induced by oral glucose challenge,30 or 100 mg/kg/day,suppressed
same,fasting glucose levels,30 or 100 mg/kg/day,decreased
